In patent US7608612B2, “Radiosensitizer formulations and methods for use” (priority 2005, dated 2009):
“Also recorded” adds a separate entry of the source.

How the values were obtained:
[1] = system: Chinese hamster ovary (CHO) cells; assay: In vitro synergism of buthionine sulfoximine and 4(5)-nitrohistidine as radiosensitizers; assay type: cell-based; details: compounds at 2 mM, radiation 0 to 10 Gy
Procedure: Buthionine sulfoximine is an agent known to deplete the levels of endogenous detoxifier and radioprotector glutathione. […] In several experiments, as here, the enhancement ration was greater than two with both agents present. CHO cells were used in the experiments and trhe compounds were present at 2 mM concentration as indicated.
Chinese hamster ovary cells were grown on F12 medium supplemented with fetal calf serum. Cells were treated with dosages of radiation from 0 to 10 Gy, using a 9 MeV electron beam as above, either alone or in the presence of nitrohistidine, buthionine sulfoximine, or 4(5)-nitrohistidine plus buthionine sulfoximine together. When present, the buthionine sulfoximine and 4(5)-nitrohistidine were added at 2 mM concentration. […] S. fractions remaining for the combined dual drug/radiation treatment indicate an initial lag time, before continued depletion of cells surviving, down to less than 0.01 SF at 10 Gy in the presence of both NHis and BSO. The enhancement ratio calculated for the combined treatment was greater than two over that of any other treatment combination.

[2] = system: Lewis lung carcinoma; assay: In vivo growth retardation experiment 2 with Lewis lung carcinoma (comparison with misonidazole); parameters: species or system mice; details: for tumor growth course (in words): mice with Lewis lung carcinoma, radiosensitizer plus radiation
Description: Another growth retardation study was done in mice implanted with Lewis lung carcinoma comparing 4(5)-nitrohistidine (NHis) plus radiation treatment to misonidazole plus radiation treatment.

[3] = system: tumors; details: number of trials out of all trials; cited from earlier work
[4] = system: Chinese hamster ovary (CHO) cells; assay: In vitro study of 4(5)-nitrohistidine as a radiosensitizer, 300 cGy 9 MeV electron beam; assay type: cell-based
Procedure: FIG. 2A is an in vitro study of nitrohistidine on Chinese hamster ovary (CHO) cells. CHO cells were in use in an F12 medium with fetal calf serum. A 9 MeV electron beam was used to irradiate the Petri dishes, dose 300 cGy, and a concentration range of 1-4 mM nitrohistidine was employed.
FIG. 2B is an in vitro study of nitrohistidine compared to misonidazole on CHO cells.
An in vitro study using Chinese hamster ovary (CHO) cells was carried out using F12 medium with fetal calf serum for growth of the CHO cells. A 9 MeV electron beam, generated by a Varian Clinac 1800 instrument, was used to irradiate the Petri dishes, at a dose of 300 cGy, and a concentration of 1 to 4 mM 4(5)-nitrohistidine was added alone, or in combination with the radiation dose.

[5] = system: Chinese hamster ovary (CHO) cells; assay: In vitro study of 4(5)-nitrohistidine as a radiosensitizer under hypoxic conditions; assay type: cell-based; details: 30 min hypoxic pre-incubation
[6] = system: Lewis lung carcinoma; assay: In vivo growth retardation experiment 1 with Lewis lung carcinoma; parameters: species or system mice (C-57)
Procedure: FIG. 4 is an in vivo Growth Retardation Study of Lewis lung carcinoma in […]. Groups of 5-6 mice were subcutaneously implanted with Lewis Lung Carcinoma cells and permitted to grow a small measurable tumor in the hind leg. Radiosensitizers were given by i.p. injection. In some comparative experiments, nitrohistidine was employed at half the concentration of misonidazole. The measurable tumors were treated with a single 500 cGy fraction of 9 MeV electrons.
FIG. 5 is a tumor size assessment plot from the Growth Retardation Study of FIG. 4, showing tumor size as a function of time (in days).
Groups of 5-6 mice (C-57) were subcutaneously implanted in the hind leg with Lewis lung carcinoma cells and the cells were permitted to grow until a measurable tumor was evident. Radiosensitizers were administered using i.p. injection at 2 mM concentration, and then treated with a single 500 cGy dose administered with a 9 MeV electron beam and tumor size measured daily for a period of 9 days. Control mice were implanted with tumor cells and left untreated.

[7] = system: protozoa; details: Brossi et al.; cited from earlier work
[8] = first group of mice, NHis+XRT, day 9
[9] = second group of mice, NHis+XRT, day 9

Structure (SMILES)	radiosensitization / synergism (in words) [1]	tumor growth course (in words) [2]	clinical trials that suggested any clinical benefit as a radiosensitizer [3]	toxicity of nitrohistidine alone (S. fraction, surviving fraction of cells) ([4]; 1-4 mM nitrohistidine, no radiation)	effective concentration range for radiosensitization ([4]; 300 cGy) [mM]	S. fraction (surviving fraction) in the presence of ionizing radiation (Nitro+XRT) ([4]; 300 cGy, all four concentrations 1 to 4 mM)	radiosensitizing effectiveness of 2 mM compared with 5 mM ([4]; additional studies, data not shown)	S. Fraction at 10 Gy ([5]; 2 mM plus radiation)	calculated enhancement ratio ([5]; 2 mM, at the 0.1 level SF value (90% killing), versus radiation alone)	growth retardation compared to the control group [6, 8]	growth retardation compared to the group treated with radiation alone [6, 8]	tumor size at day 9 ([6]; first group of mice, NHis+XRT, i.p., single 500 cGy dose)	tumor size at day 9 ([6]; second group of mice, NHis alone without radiation (same value given for control))	tumor size at day 9 ([6]; second group of mice, NHis+XRT)	growth retardation compared to the XRT treatment alone [6, 9] [%]	growth retardation compared to the control or NHis alone [6, 9]	in vivo radiosensitizer potency compared with misonidazole ([2]; plus radiation, in vivo)	efficacy as an anti-protozoal agent relative to known anti-protozoal nitroimidazole agents [7]
CCCCS(=N)(=O)CCC(N)C(=O)O (stereo not shown) [Buthionine sulfoximine, buthionine sulfoximine]	some radiosensitization properties of its own																	
COCC(O)Cn1ccnc1[N+](=O)[O-] (stereo not shown) [misonidazole, reference compound]		no ability to retard tumor growth	5 of 38															
NC(Cc1nc[nH]c1[N+](=O)[O-])C(=O)O (stereo not shown) [4(5)-nitrohistidine]		plateau in tumor growth after 9-10 days		did not appear to possess toxicity by itself; also recorded: did not exhibit any toxicity	1 to 4	under 0.6	nearly as effective as 5 mM	about 0.006	1.38	about 22%	about 10%	about 18 mm	about 21 mm	about 15 mm	~35	about 29%	more potent and effective radiosensitizer than misonidazole	zero
